Reference: publication PMC9930781, “Design, synthesis, docking, and anticancer evaluations of new thiazolo[3,2-a] pyrimidines as topoisomerase II inhibitors” (Journal of Enzyme Inhibition and Medicinal Chemistry, 2023)
Like-named read-outs stand apart in the source and are kept apart here.

Tests used:
[1] = In vitro cytotoxicity on WI-38 human cell line (MTT); type: cell-based; conditions: WI-38 normal fibroblast cells, WI-38 normal fibroblasts
Experimental: Cell line cells were provided from the American Type Culture Collection cultured in DMEM (Invitrogen/Life Technologies) with 10% FBS (Hyclone), 1% penicillin-streptomycin, and 10 μg/mL insulin (Sigma). The remainder of the chemicals and reagents were provided by either Sigma or Invitrogen. Prior to the MTT assay, plated cells were incubated for 24 h in a 96-well plate with 100 μl of the test substance per well and 100 μl of complete growth medium (cell density 1.2–1.8 × 10,000 cells/well). Cultures were transferred from the incubator and placed in a sterile work area or laminar flow hood. Then, 10% of the culture medium volume of reconstituted MTT was added, and the cultures were incubated for an additional 2 h. After that, cultures were taken out of the incubator, and the formazan crystals were dissolved using MTT solubilising solution [M-8910] in an amount equal to the volume of the original culture medium. The absorbance at 570 nm was measured. Finally, the IC50 of the test compound compared to the reference was calculated using the GraphPad Prism software.

[2] = tested on: A549 non-small cell lung cancer (NSCLC) cell line; assay: MTT cytotoxicity assay, A549
Experimental: (§1) The MTT test was used to evaluate the inhibitory effects of the substances on cell proliferation in the aforementioned cell lines. This colorimetric assay targets the mitochondrial succinate dehydrogenase of living cells to change yellow tetrazolium bromide (MTT) to a purple formazan derivative. […] Then, the cells were incubated for 24 h and exposed to various chemical concentrations. 20 μL of a 5 mg/mL MTT solution was applied after a 24-h drug treatment period and incubated for 4 h. To dissolve the produced purple formazan, each well receives 100 μL of dimethyl sulfoxide (DMSO). […] The formula for calculating the relative percentage of cell viability was (A570 of treated samples/A570 of the untreated sample) × 100.

[3] = tested on: MCF7 breast cancer cell line; assay: MTT cytotoxicity assay, MCF7; conditions: SI = IC50 normal cell (WI-38)/IC50 cancer cell (MCF7)
Experimental: as §1
The newly prepared compounds were screened against three cancer cell lines: namely, breast cancer cell line MCF7, non-small cell lung cancer (NSCLC) cell line A549, and renal cancer cell line A498, using the MTT colorimetric assay.

[4] = tested on: A549 cells; assay: Annexin V-FITC apoptosis assay; type: cell-based, human
Experimental: Each well of a 6-well plate received 1 × 10^5 conc. lung cancer (A549) cells that were then incubated for 24 h. The cells were then exposed for 24 h to 2 nM compound 4c or (0.1%) DMSO before being harvested, washed with PBS, and stained for 15 min at room temperature in the dark with annexin V-FITC and PI in binding buffer ([…] at pH 7.4). The flow cytometer was then used to examine the cells.
Apoptotic cell death is a method by which an anticancer agent destroys tumour cells. Therefore, compound 4c was additionally estimated through an Annexin V-FITC experiment utilising A549 cells to evaluate if the cytotoxic action of the novel compound is related to necrosis or apoptosis.

[5] = tested on: A498 renal cell carcinoma cell line; assay: MTT cytotoxicity assay, A498
Experimental: as §1

[6] = tested on: A549 cells; assay: Cell cycle analysis by flow cytometry; type: cell-based, human; conditions: A549, 4c at IC50 (2 nM), 24 h (b61 also says 48 h)
Experimental: Briefly, a six-well plate containing lung cancer (A549) cells was seeded with 1 × 10^5 cells per well and then incubated for 24 h. 2 nM of compound 4c or 0.1% DMSO was applied to the cells for 24 h. Following that, cells were gathered and fixed in ice-cold 70% ethanol at 4 °C for 12 h. The cells were then rinsed with cold Phosphate Buffer Saline (PBS) and incubated for 30 min at 37 °C in 0.5 ml of PBS after the ethanol was removed. Propidium iodide was used to stain the cells for 30 min in the dark. DNA content was determined using a flow cytometer.
The cell cycle is required for cell division and replication. The cell cycle was divided into four distinct phases: G1 phase ([…]), S phase (synthesis), G2 phase (interphase), and M phase (mitosis). The G1 phase, also known as the post-mitotic pre-synthesis phase, is distinguished by direct cell division. DNA replication identifies the S phase. The G2 phase, premitotic, or post-synthetic phase, which can be considered the actual division, is when the cell prepares to split into two cells. Finally, the doubled DNA organised in chromosomes is separated during the M- or mitosis-phase division. Many anticancer drugs cause apoptosis, cell cycle arrest, or a combination of both as part of their cytotoxic action.

[7] = biological target: human topoisomerase II (Homo sapiens, UniProt P11388); assay: DNA Topo II inhibition (kDNA decatenation) assay; type: biochemical
Sequence of human topoisomerase II (P11388 whole entry): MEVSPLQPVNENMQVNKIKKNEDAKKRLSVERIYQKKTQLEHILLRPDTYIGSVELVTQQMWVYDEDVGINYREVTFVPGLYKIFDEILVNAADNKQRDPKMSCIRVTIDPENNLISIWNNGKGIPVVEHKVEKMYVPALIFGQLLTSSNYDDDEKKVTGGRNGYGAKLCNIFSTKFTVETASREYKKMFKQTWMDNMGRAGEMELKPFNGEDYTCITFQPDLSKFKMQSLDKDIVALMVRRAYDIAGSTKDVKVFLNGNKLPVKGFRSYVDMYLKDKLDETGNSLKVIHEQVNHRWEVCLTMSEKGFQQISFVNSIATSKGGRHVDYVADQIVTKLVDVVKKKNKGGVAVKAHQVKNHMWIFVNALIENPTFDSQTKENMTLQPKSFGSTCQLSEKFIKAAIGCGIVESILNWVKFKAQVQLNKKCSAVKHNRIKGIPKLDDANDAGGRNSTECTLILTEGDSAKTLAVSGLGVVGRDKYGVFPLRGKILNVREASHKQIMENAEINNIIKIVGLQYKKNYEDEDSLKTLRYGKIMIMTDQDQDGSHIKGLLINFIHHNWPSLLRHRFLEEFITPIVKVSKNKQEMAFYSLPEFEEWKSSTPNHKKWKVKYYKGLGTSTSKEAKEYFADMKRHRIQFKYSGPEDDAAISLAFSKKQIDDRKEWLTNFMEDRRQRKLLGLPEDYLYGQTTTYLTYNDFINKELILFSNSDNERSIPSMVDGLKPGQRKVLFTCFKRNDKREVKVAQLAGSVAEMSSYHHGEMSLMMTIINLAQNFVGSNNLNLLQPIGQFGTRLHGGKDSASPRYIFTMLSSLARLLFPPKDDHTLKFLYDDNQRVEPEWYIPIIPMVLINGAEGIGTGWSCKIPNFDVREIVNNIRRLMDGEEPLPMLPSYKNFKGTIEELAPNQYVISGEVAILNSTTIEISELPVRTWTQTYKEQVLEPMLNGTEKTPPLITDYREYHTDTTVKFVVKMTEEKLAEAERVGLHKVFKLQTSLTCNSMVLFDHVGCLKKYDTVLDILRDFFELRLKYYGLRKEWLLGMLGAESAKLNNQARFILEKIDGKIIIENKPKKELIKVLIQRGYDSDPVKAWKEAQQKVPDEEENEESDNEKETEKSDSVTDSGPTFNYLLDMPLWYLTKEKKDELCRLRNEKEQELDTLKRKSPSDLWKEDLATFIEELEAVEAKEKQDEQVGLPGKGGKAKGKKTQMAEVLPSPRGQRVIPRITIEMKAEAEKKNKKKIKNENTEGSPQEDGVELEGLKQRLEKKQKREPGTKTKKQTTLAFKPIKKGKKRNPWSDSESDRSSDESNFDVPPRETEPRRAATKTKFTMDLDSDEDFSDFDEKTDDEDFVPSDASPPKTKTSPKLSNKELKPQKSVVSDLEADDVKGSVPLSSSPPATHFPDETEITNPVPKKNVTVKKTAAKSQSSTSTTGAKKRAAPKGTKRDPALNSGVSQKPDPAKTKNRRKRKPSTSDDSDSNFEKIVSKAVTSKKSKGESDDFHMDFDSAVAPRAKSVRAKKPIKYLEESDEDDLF
Experimental: The ATP-dependent decatenation of kinetoplast DNA (kDNA) obtained from Crithidia fasciculata, which consists of a network of numerous minicircles (2.3 Kb) and some maxicircles, was used to measure topoisomerase II inhibition. Reactions took place in 20 μL and comprised topoisomerase II, 200–300 ng of kDNA, and 120 mM KCl with 50 mM Tris-HCl, pH 8, 10 mM MgCl2, 0.5 mM ATP, and 0.5 mM dithiothreitol. In preliminary tests, the quantity of topoisomerase II (5 units) was changed to decatenate almost 100% of the kDNA under these assay circumstances. […] The products in the reaction mixture were separated by a 1% agarose gel after the reaction was complete and then could be seen after being stained with ethidium bromide (0.2 μg/mL). The gels were run at 100 V for about 40 min and visualised under UV transillumination.
This assay is based on the fact that human Topo II can decatenate interlinked double-stranded DNA molecules.

## CCOC(=O)C1=C(C)N=C2SC=C(NC(=O)c3c(Cl)cc(Cl)cc3Cl)N2C1c1ccc(OC)cc1OC (stereo not drawn) [Compound 4c, Ethyl 5–(2,4-dimethoxyphenyl)-7-methyl-3–(2,4,6-trichlorobenzamido)-5H-thiazolo[3,2-a]pyrimidine-6-carboxylate]
[1]
  IC50 at 24 h: 15500 ± 840 nM
[2]; Homo sapiens, A549, 24 h, read-out: Cytotoxicity IC50 A549± SD, MTT, A549, 24 h treatment, mean ± SD of two independent assays
  IC50: 2 nM
[2]; SI = IC50 normal cell (WI-38)/IC50 cancer cell (A549)
  Selectivity index (SI) A549: 7770
[2]; read-out: Cytotoxicity IC50 A549± SD, MTT, A549, 24 h treatment, mean ± SD of two independent assays
  IC50: 1 nM
[3]
  Selectivity index (SI) MCF7: 7770
[4]; A549
  elevation in the total apoptosis versus control: 26.47 fold
  increase in early apoptotic cells versus control: 61.92 fold
  increase in late apoptotic cells versus control: 97 fold
  increase in the percentage of necrosis versus control: 2.5 fold
[4]; A549, 4c at IC50 (2 nM), control 0.13%
  late apoptotic cells: 12.61%
[4]; A549, 4c at IC50 (2 nM), control […]
  early apoptotic cells: 24.15%
[5]; Homo sapiens, A498, 24 h, read-out: Cytotoxicity IC50 A498± SD, MTT, A498, 24 h treatment, mean ± SD of two independent assays
  IC50: 1 nM
[5]; SI = IC50 normal cell (WI-38)/IC50 cancer cell (A498)
  Selectivity index (SI) A498: 15540
[5]; read-out: Cytotoxicity IC50 A498± SD, MTT, A498, 24 h treatment, mean ± SD of two independent assays
  IC50: 2 nM
[6]; control 13.97
  %G2/M: 4.04%
[6]; control 29.64
  %S: 26.89%
[6]; control 56.39
  %G0–G1: 69.07%
[7]; conc 0.1 (μM)
  %inh TOPO II: 44%
[7]; conc 1 (μM)
  %inh TOPO II: 60%
[7]; conc 10 (μM)
  %inh TOPO II: 79%
[7]; conc 100 (μM)
  %inh TOPO II: 92%
[7]; kDNA decatenation, four concentrations 0.1-100 µM, mean ± SD of two independent assays
  IC50: 230 ± 10 nM
[7]; versus IC50 of Doxorubicin
  Topo II potency relative to Doxorubicin (IC50 ratio): 3.6 fold
[7]; versus IC50 of Etoposide
  Topo II potency relative to Etoposide (IC50 ratio): 1.4 fold
